# Results from PubChem BioAssay (NCI).
#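 Cultured in 96-well plates, cells were exposed to test compound for 48 hours across five concentrations. GI50 is the concentration that inhibits growth by half. TGI: total growth inhibition.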
# What was measured:
# Assay in all cases: inhibition of tumour cell growth, NCI panel, 48 h
# MDA-MB-231 breast = system: MDA-MB-231 breast
# OVCAR-3 ovarian = system: OVCAR-3 ovarian
# SK-MEL-28 melanoma = system: SK-MEL-28 melanoma
# SNB-75 CNS = system: SNB-75 CNS
# U251 CNS = system: U251 CNS
# NCI/ADR-RES ovarian = system: NCI/ADR-RES ovarian
# HCT-116 colon = system: HCT-116 colon
# CAKI-1 renal = system: CAKI-1 renal
# BT-549 breast = system: BT-549 breast
# COLO 205 colon = system: COLO 205 colon
# MOLT-4 leukemia = system: MOLT-4 leukemia
# OVCAR-5 ovarian = system: OVCAR-5 ovarian
# MALME-3M melanoma = system: MALME-3M melanoma
# SF-268 CNS = system: SF-268 CNS
# RPMI-8226 leukemia = system: RPMI-8226 leukemia
# IGROV1 ovarian = system: IGROV1 ovarian
# ACHN renal = system: ACHN renal
# HCT-15 colon = system: HCT-15 colon
# KM12 colon = system: KM12 colon
# HL-60(TB) leukemia = system: HL-60(TB) leukemia
# MCF7 breast = system: MCF7 breast
# A549 NSCLC = system: A549 NSCLC
# UACC-62 melanoma = system: UACC-62 melanoma
# T-47D breast = system: T-47D breast
# UACC-257 melanoma = system: UACC-257 melanoma
# PC-3 prostate = system: PC-3 prostate
# HOP-62 NSCLC = system: HOP-62 NSCLC
# NCI-H23 lung = system: NCI-H23 lung
# 786-0 renal = system: 786-0 renal
# SW-620 colon = system: SW-620 colon
# SF-295 CNS = system: SF-295 CNS
# SF-539 CNS = system: SF-539 CNS
# SNB-19 CNS = system: SNB-19 CNS
# RXF 393 renal = system: RXF 393 renal
# NCI-H522 lung = system: NCI-H522 lung
# HOP-92 NSCLC = system: HOP-92 NSCLC
# HS 578T breast = system: HS 578T breast
# K-562 leukemia = system: K-562 leukemia
# DU-145 prostate = system: DU-145 prostate
# SN12C renal = system: SN12C renal
# TK-10 renal = system: TK-10 renal
# LOX IMVI melanoma = system: LOX IMVI melanoma
# SK-OV-3 ovarian = system: SK-OV-3 ovarian
# OVCAR-8 ovarian = system: OVCAR-8 ovarian
# NCI-H226 lung = system: NCI-H226 lung
# MDA-MB-435 = system: MDA-MB-435
# NCI-H460 lung = system: NCI-H460 lung
# SK-MEL-2 melanoma = system: SK-MEL-2 melanoma
# SR leukemia = system: SR leukemia
# UO-31 renal = system: UO-31 renal
# A498 renal = system: A498 renal
# SK-MEL-5 melanoma = system: SK-MEL-5 melanoma
# HCC-2998 colon = system: HCC-2998 colon
# CCRF-CEM leukemia = system: CCRF-CEM leukemia
# OVCAR-4 ovarian = system: OVCAR-4 ovarian
# HT29 colon = system: HT29 colon
structure (smiles),measurement,setting,value
Cc1ccc(C(=O)c2oc3ccc4c(C)cc(=O)oc4c3c2C)cc1,GI50,MDA-MB-231 breast,11.1 µM
same,TGI,MDA-MB-231 breast,> 100 µM
same,GI50,OVCAR-3 ovarian,14.7 µM
same,TGI,OVCAR-3 ovarian,54.8 µM
same,GI50,SK-MEL-28 melanoma,6.37 µM
same,TGI,SK-MEL-28 melanoma,> 100 µM
same,GI50,SNB-75 CNS,4.19 µM
same,TGI,SNB-75 CNS,39.4 µM
same,GI50,U251 CNS,3.64 µM
same,TGI,U251 CNS,> 100 µM
same,GI50,NCI/ADR-RES ovarian,10.2 µM
same,TGI,NCI/ADR-RES ovarian,> 100 µM
same,GI50,HCT-116 colon,43.8 µM
same,TGI,HCT-116 colon,> 100 µM
same,GI50,CAKI-1 renal,5.78 µM
same,TGI,CAKI-1 renal,> 100 µM
same,GI50,BT-549 breast,45.6 µM
same,TGI,BT-549 breast,> 100 µM
same,GI50,COLO 205 colon,4.66 µM
same,TGI,COLO 205 colon,> 100 µM
same,GI50,MOLT-4 leukemia,63.6 µM
same,TGI,MOLT-4 leukemia,> 100 µM
same,GI50,OVCAR-5 ovarian,11.2 µM
same,TGI,OVCAR-5 ovarian,> 100 µM
same,GI50,MALME-3M melanoma,25.7 µM
same,TGI,MALME-3M melanoma,> 100 µM
same,GI50,SF-268 CNS,10.4 µM
same,TGI,SF-268 CNS,98.8 µM
same,GI50,RPMI-8226 leukemia,7.7 µM
same,TGI,RPMI-8226 leukemia,> 100 µM
same,GI50,IGROV1 ovarian,13.8 µM
same,TGI,IGROV1 ovarian,> 100 µM
same,GI50,ACHN renal,3.65 µM
same,TGI,ACHN renal,94.3 µM
same,GI50,HCT-15 colon,0.585 µM
same,TGI,HCT-15 colon,> 100 µM
same,GI50,KM12 colon,63.3 µM
same,TGI,KM12 colon,> 100 µM
same,GI50,HL-60(TB) leukemia,13.4 µM
same,TGI,HL-60(TB) leukemia,> 100 µM
same,GI50,MCF7 breast,5.95 µM
same,TGI,MCF7 breast,> 100 µM
same,GI50,A549 NSCLC,4.97 µM
same,TGI,A549 NSCLC,> 100 µM
same,GI50,UACC-62 melanoma,2.66 µM
same,TGI,UACC-62 melanoma,> 100 µM
same,GI50,T-47D breast,50.1 µM
same,TGI,T-47D breast,> 100 µM
same,GI50,UACC-257 melanoma,35.9 µM
same,TGI,UACC-257 melanoma,> 100 µM
same,GI50,PC-3 prostate,5.64 µM
same,TGI,PC-3 prostate,> 100 µM
same,GI50,HOP-62 NSCLC,12.2 µM
same,TGI,HOP-62 NSCLC,> 100 µM
same,GI50,NCI-H23 lung,27.3 µM
same,TGI,NCI-H23 lung,> 100 µM
same,GI50,786-0 renal,5.96 µM
same,TGI,786-0 renal,> 100 µM
same,GI50,SW-620 colon,8.56 µM
same,TGI,SW-620 colon,> 100 µM
same,GI50,SF-295 CNS,2.19 µM
same,TGI,SF-295 CNS,30.2 µM
same,GI50,SF-539 CNS,1.41 µM
same,TGI,SF-539 CNS,20.1 µM
same,GI50,SNB-19 CNS,5.98 µM
same,TGI,SNB-19 CNS,> 100 µM
same,GI50,RXF 393 renal,13.8 µM
same,TGI,RXF 393 renal,91 µM
same,GI50,NCI-H522 lung,9.12 µM
same,TGI,NCI-H522 lung,55.2 µM
same,GI50,HOP-92 NSCLC,27.1 µM
same,TGI,HOP-92 NSCLC,95.2 µM
same,GI50,HS 578T breast,19.4 µM
same,TGI,HS 578T breast,> 100 µM
same,GI50,K-562 leukemia,5.53 µM
same,TGI,K-562 leukemia,> 100 µM
same,GI50,DU-145 prostate,9.7 µM
same,TGI,DU-145 prostate,> 100 µM
same,GI50,SN12C renal,10.4 µM
same,TGI,SN12C renal,> 100 µM
same,GI50,TK-10 renal,45.1 µM
same,TGI,TK-10 renal,> 100 µM
same,GI50,LOX IMVI melanoma,2.45 µM
same,TGI,LOX IMVI melanoma,19.1 µM
same,GI50,SK-OV-3 ovarian,18 µM
same,TGI,SK-OV-3 ovarian,> 100 µM
same,GI50,OVCAR-8 ovarian,6.08 µM
same,TGI,OVCAR-8 ovarian,> 100 µM
same,GI50,NCI-H226 lung,11.7 µM
same,TGI,NCI-H226 lung,> 100 µM
same,GI50,MDA-MB-435,5.95 µM
same,TGI,MDA-MB-435,> 100 µM
same,GI50,NCI-H460 lung,0.896 µM
same,TGI,NCI-H460 lung,18.2 µM
same,GI50,SK-MEL-2 melanoma,35 µM
same,TGI,SK-MEL-2 melanoma,> 100 µM
same,GI50,SR leukemia,25.1 µM
same,TGI,SR leukemia,> 100 µM
same,GI50,UO-31 renal,11.4 µM
same,TGI,UO-31 renal,> 100 µM
same,GI50,A498 renal,10.1 µM
same,TGI,A498 renal,> 100 µM
same,GI50,SK-MEL-5 melanoma,2.69 µM
same,TGI,SK-MEL-5 melanoma,> 100 µM
same,GI50,HCC-2998 colon,24 µM
same,TGI,HCC-2998 colon,> 100 µM
same,GI50,CCRF-CEM leukemia,> 100 µM
same,TGI,CCRF-CEM leukemia,> 100 µM
same,GI50,OVCAR-4 ovarian,23.6 µM
same,TGI,OVCAR-4 ovarian,75.5 µM
same,GI50,HT29 colon,8.9 µM
same,TGI,HT29 colon,> 100 µM
